Data from patent US20120214802A1, “PYRROLIDINE COMPOUNDS WHICH INHIBIT BETA-SECRETASE ACTIVITY AND METHODS OF USE THEREOF” (priority 2009, published 2012).

Each compound was assayed against memapsin 2 (Homo sapiens, UniProt P56817) (assay: Inhibition of memapsin 2 beta-secretase activity (fluorogenic substrate FS-2)). Conditions: pH 4, 37° C., read-out: M2 Ki.
Format: biochemical
Method: Potency of compounds were determined by measurement of their inhibition of memapsin 2 activity toward a fluorescent substrate. Kinetic inhibition experiments were performed using the procedure as described in Ermolieff, et al. (Biochemistry 39:12450-12456 (2000), the teachings of which are incorporated hereby in their entirety). Briefly, assays were performed at pH 4, 37° C., by pre-incubation of memapsin 2 enzyme with compound for 20 minutes. Activity measurements were initiated by addition of a fluorogenic substrate FS-2 (Bachem Americas, Torrance, Calif.) MCA-SEVNLDAEFR-DNP (SEQ ID NO.: 2). The substrate was derived from 10 amino acids of the human amyloid precursor protein (APP), with the Swedish variant amino acids at the beta-secretase cleavage site. The terminal amino acid was modified from arginine to lysine to facilitate derivatization with a functional group for detection by autofluorescence. The amino acid sequence of the “core” peptide of the substrate is SEVNLDAEFK (SEQ ID NO.: 3). The amino terminus was derivatized with (7-methoxycoumarin-4-yl)acetyl (MCA), and the epsilon amine of the lysine side chain of the terminal residue (K in sequence SEVNLDAEFK (SEQ ID NO.: 3)) was derivatized with 2,4-dinitorphenyl (DNP).

memapsin 2, sequence (P56817 46-501): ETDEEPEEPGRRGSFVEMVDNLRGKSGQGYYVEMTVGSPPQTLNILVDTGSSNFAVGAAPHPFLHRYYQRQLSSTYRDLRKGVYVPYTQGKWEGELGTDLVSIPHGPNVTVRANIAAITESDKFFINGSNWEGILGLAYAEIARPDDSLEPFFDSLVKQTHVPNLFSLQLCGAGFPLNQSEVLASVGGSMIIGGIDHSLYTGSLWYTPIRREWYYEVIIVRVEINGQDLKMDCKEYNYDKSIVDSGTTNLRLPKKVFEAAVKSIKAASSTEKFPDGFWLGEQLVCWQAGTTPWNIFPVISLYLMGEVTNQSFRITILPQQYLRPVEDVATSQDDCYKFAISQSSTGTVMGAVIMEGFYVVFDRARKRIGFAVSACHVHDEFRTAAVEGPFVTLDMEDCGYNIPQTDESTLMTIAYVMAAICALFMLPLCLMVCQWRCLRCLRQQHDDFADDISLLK

Row | Structure (SMILES) | Ki [nM]
1 | Cc1coc([C@H]2CCCN2C(=O)c2cccc(C(=O)N[C@@H](Cc3ccccc3)[C@H](O)[C@H]3CCCN3C(=O)OC(C)(C)C)c2)n1 [1-3, (R)-tert-butyl 2-((1S,2S)-1-hydroxy-2-(3-((R)-2-(4-methyloxazol-2-yl)pyrrolidine-1-carbonyl)benzamido)-3-phenylpropyl)pyrrolidine-1-carboxylate] | > 750
2 | Cc1csc([C@H]2CCCN2C(=O)c2cccc(C(=O)N[C@@H](Cc3ccccc3)[C@H](O)[C@H]3CC[C@@H](c4ccccc4)N3)c2)n1 [1-29, N-((1R,2S)-1-hydroxy-3-phenyl-1-((2R,5S)-5-phenylpyrrolidin-2-yl)propan-2-yl)-3-((R)-2-(4-methylthiazol-2-yl)pyrrolidine-1-carbonyl)benzamide] | > 750
3 | Cc1csc(CN(C)C(=O)c2cc(C(=O)N[C@@H](Cc3ccccc3)[C@H](O)[C@H]3CCCN3)cc(-c3ccc(F)cc3F)c2)n1 [1-30, 2′,4′-difluoro-N3-((1R,2S)-1-hydroxy-3-phenyl-1-((R)-pyrrolidin-2-yl)propan-2-yl)-N5-methyl-N5-((4-methylthiazol-2-yl)methyl)biphenyl-3,5-dicarboxamide] | < 250
4 | Cc1csc([C@H]2CCCN2C(=O)c2cccc(C(=O)N[C@@H](Cc3ccccc3)[C@H](O)[C@@H]3CC[C@H](c4ccccc4)N3)c2)n1 [1-31, N-((1R,2S)-1-hydroxy-3-phenyl-1-((2S,5R)-5-phenylpyrrolidin-2-yl)propan-2-yl)-3-((R)-2-(4-methylthiazol-2-yl)pyrrolidine-1-carbonyl)benzamide] | > 750
5 | Cc1csc([C@H]2CCCN2C(=O)c2cc(C(=O)N[C@@H](Cc3ccccc3)[C@H](O)[C@H]3C[C@H](F)CN3)cc(-c3ncco3)c2)n1 [1-38, N-((1R,2S)-1-((2R,4S)-4-fluoropyrrolidin-2-yl)-1-hydroxy-3-phenylpropan-2-yl)-3-((R)-2-(4-methylthiazol-2-yl)pyrrolidine-1-carbonyl)-5-(oxazol-2-yl)benzamide] | < 250
6 | Cc1csc(CN(C)C(=O)c2cccc(C(=O)N[C@@H](Cc3cccc(F)c3)[C@H](O)[C@H]3CCCN3)c2)n1 [1-54, N1-((1R,2S)-3-(3-fluorophenyl)-1-hydroxy-1-((R)-pyrrolidin-2-yl)propan-2-yl)-N3-methyl-N3-((4-methylthiazol-2-yl)methyl)isophthalamide] | 250 to 750
7 | Cc1csc([C@H]2CCCN2C(=O)c2cccc(C(=O)N[C@@H](Cc3ccccc3)[C@H](O)[C@@H]3NCCC3(F)F)c2)n1 [1-57, N-((1S,2S)-1-((S)-3,3-difluoropyrrolidin-2-yl)-1-hydroxy-3-phenylpropan-2-yl)-3-((R)-2-(4-methylthiazol-2-yl)pyrrolidine-1-carbonyl)benzamide] | < 250

Next, values leading:

Row | Ki [nM] | Structure (SMILES)
8 | < 250 | Cc1csc([C@H]2CCCN2C(=O)c2cc(C(=O)N[C@@H](Cc3ccccc3)[C@H](O)[C@H]3CCCN3)cc([N+](=O)[O-])c2)n1 [1-55, N-((1R,2S)-1-hydroxy-3-phenyl-1-((R)-pyrrolidin-2-yl)propan-2-yl)-3-((R)-2-(4-methylthiazol-2-yl)pyrrolidine-1-carbonyl)-5-nitrobenzamide]
9 | < 250 | Cc1csc([C@H]2CCCN2C(=O)c2cc(Cl)cc(C(=O)N[C@@H](Cc3ccccc3)[C@H](O)[C@H]3CCCN3)c2)n1 [1-56, 3-chloro-N-((1R,2S)-1-hydroxy-3-phenyl-1-((R)-pyrrolidin-2-yl)propan-2-yl)-5-((R)-2-(4-methylthiazol-2-yl)pyrrolidine-1-carbonyl)benzamide]
10 | 250 to 750 | Cc1csc([C@H]2CCCN2C(=O)c2cc(C(=O)N[C@@H](Cc3ccccc3)[C@H](O)[C@H]3CC[C@@H](C)N3)cc(-n3cccc3)c2)n1 [1-58, N-((1R,2S)-1-hydroxy-1-((2R,5R)-5-methylpyrrolidin-2-yl)-3-phenylpropan-2-yl)-3-((R)-2-(4-methylthiazol-2-yl)pyrrolidine-1-carbonyl)-5-(1H-pyrrol-1-yl)benzamide]
